Test results taken from patent US20250179079A1, “HEXAHYDROPYRIDO[4,3-B]INDOLYL KETONE DERIVATIVES USEFUL AS CGAS MODULATORS” (Ventus Therapeutics U.S., Inc., priority 2022, published 2025).
In brackets after ≈: the same amount, converted by molar mass. Like-named read-outs stand apart in the source and are kept apart here.

Tests used:
[1] = Solubility (e.g., in phosphate buffered saline (PBS)); format: physicochemical; settings: aqueous buffer, Table D
h-cGAS = h-cGAS (Homo sapiens (Human), UniProt Q8N884); assay: hcGAS Kinase-Glo assay; format: biochemical
Chain of h-cGAS (Q8N884 whole entry): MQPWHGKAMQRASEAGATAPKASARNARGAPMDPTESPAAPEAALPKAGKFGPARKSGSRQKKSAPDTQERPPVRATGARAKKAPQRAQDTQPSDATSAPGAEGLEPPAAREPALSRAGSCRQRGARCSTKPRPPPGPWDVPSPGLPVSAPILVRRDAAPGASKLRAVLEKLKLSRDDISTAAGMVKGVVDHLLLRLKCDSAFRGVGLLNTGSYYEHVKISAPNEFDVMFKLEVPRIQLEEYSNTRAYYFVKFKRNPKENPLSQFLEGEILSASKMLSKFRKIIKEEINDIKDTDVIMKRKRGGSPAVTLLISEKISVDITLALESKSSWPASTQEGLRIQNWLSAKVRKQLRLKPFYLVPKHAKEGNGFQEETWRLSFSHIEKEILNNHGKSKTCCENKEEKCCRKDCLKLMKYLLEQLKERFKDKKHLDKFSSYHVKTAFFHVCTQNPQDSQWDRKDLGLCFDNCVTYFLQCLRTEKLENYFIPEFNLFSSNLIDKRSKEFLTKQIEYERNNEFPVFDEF

[2] = Table D comparative data, IC50 range designation, read-out: hcGAS (IC50)
[3] = Table D comparative data, raw data in parentheses, read-out: hcGAS (IC50)
[4] = Table C, IC50 range designation, read-out: hcGAS IC50
[5] = Table C, raw data in parentheses, read-out: hcGAS IC50

SMILES | solubility [1] [µM] | IC50 (h-cGAS; [2]) [nM] | IC50 (h-cGAS; [3]) [nM] | IC50 (h-cGAS; [4]) [nM] | IC50 (h-cGAS; [5]) [nM] | IC50 (h-cGAS; read-out: hcGAS activity) [nM]
O=C(CO)N1CCc2[nH]c3c(Cl)c(Cl)ccc3c2C1 [Comparative Example A, 1-(6,7-dichloro-1,3,4,5-tetrahydro-2H-pyrido[4,3-b]indol-2-yl)-2-hydroxyethan-1-one] | 2 (≈ 0.598 µg/mL) | – | – | – | – | –
Cn1ccc(-c2cc(Cl)c(Cl)c3[nH]c4c(c23)CN(C(=O)CO)CC4)n1 [Comparative Example B, 1-(6,7-dichloro-9-(1-methyl-1H-pyrazol-3-yl)-1,3,4,5-tetrahydro-2H-pyrido[4,3-b]indol-2-yl)-2-hydroxyethan-1-one, reference compound] | 8.1 (≈ 3.07 µg/mL) | < 100 | 35.2 | – | – | –
O=C(CO)N1CCn2nc3c(Cl)c(Cl)ccc3c2C1 [Comparative Example C, 1-(7,8-dichloro-3,4-dihydropyrazino[1,2-b]indazol-2(1H)-yl)-2-hydroxyethan-1-one, reference compound] | 76 (≈ 22.8 µg/mL) | > 5000 | 12800 | – | – | –
Cn1ccc(-c2cc(Cl)c(Cl)c3nn4c(c23)CN(C(=O)CO)CC4)n1 [Comparative Example D, 1-(7,8-dichloro-10-(1-methyl-1H-pyrazol-3-yl)-3,4-dihydropyrazino[1,2-b]indazol-2(1H)-yl)-2-hydroxyethan-1-one, reference compound] | 53 (≈ 20.2 µg/mL) | – | – | – | – | –
O=C(c1ncc(F)cn1)N1CCc2[nH]c3c(Cl)c(Cl)ccc3c2C1 [Compound 15, (6,7-dichloro-1,3,4,5-tetrahydro-2H-pyrido[4,3-b]indol-2-yl)(5-fluoropyrimidin-2-yl)methanone] | – | – | – | 500 to 1000 | 842 | 500 to 1000
COCCOCn1c2c(c3ccc(Cl)c(Cl)c31)CN(C(=O)c1ncc(OC)cn1)CC2 [Compound 23, (6,7-dichloro-5-((2-methoxyethoxy)methyl)-1,3,4,5-tetrahydro-2H-pyrido[4,3-b]indol-2-yl)(5-methoxypyrimidin-2-yl)methanone] | – | – | – | 1000 to 5000 | 2250 | 1000 to 5000
NCC(=O)N1C2COCC1c1c([nH]c3c(Cl)c(Cl)ccc13)C2 (stereo not drawn) [Compound 66, 2-amino-1-(8,9-dichloro-1,2,4,5,6,7-hexahydro-1,5-epiminooxocino[5,4-b]indol-12-yl)ethan-1-one] | – | – | – | 100 to 500 | 314 | 100 to 500

Now from value to molecule:

solubility [1] [µM] | IC50 (h-cGAS; [2]) [nM] | IC50 (h-cGAS; [3]) [nM] | IC50 (h-cGAS; [4]) [nM] | IC50 (h-cGAS; [5]) [nM] | IC50 (h-cGAS; read-out: hcGAS activity) [nM] | SMILES
– | – | – | 100 to 500 | 222 | 100 to 500 | O=C(c1ncc(N2CCOCC2)cn1)N1CCc2[nH]c3c(Cl)c(Cl)ccc3c2C1 [Compound 31, (6,7-dichloro-1,3,4,5-tetrahydro-2H-pyrido[4,3-b]indol-2-yl)(5-morpholinopyrimidin-2-yl)methanone]
– | – | – | 1000 to 5000 | 4350 | – | COc1ccc(C(=O)N2CCc3[nH]c4c(Cl)c(Cl)ccc4c3C2)nn1 [Compound 56, (6,7-dichloro-1,3,4,5-tetrahydro-2H-pyrido[4,3-b]indol-2-yl)(6-methoxypyridazin-3-yl)methanone]
– | – | – | 1000 to 5000 | 4210 | 1000 to 5000 | NC(=O)C(=O)N1CCc2[nH]c3c(Cl)c(Cl)ccc3c2C1 [Compound 57, 2-(6,7-dichloro-1,3,4,5-tetrahydro-2H-pyrido[4,3-b]indol-2-yl)-2-oxoacetamide]
– | – | – | 100 to 500 | 620 | 100 to 500 | NNC(=O)N1CCc2[nH]c3c(Cl)c(Cl)ccc3c2C1 [Compound 59, 6,7-dichloro-1,3,4,5-tetrahydro-2H-pyrido[4,3-b]indole-2-carbohydrazide]
– | – | – | – | 1490 | 1000 to 5000 | CNCC(=O)N1CCc2[nH]c3c(Cl)c(Cl)ccc3c2C1 [Compound 64, 1-(6,7-dichloro-1,3,4,5-tetrahydro-2H-pyrido[4,3-b]indol-2-yl)-2-(methylamino)ethan-1-one]
– | – | – | 500 to 1000 | 933 | – | NCC(=O)N1Cc2[nH]c3c(Cl)c(Cl)ccc3c2C1 [Compound 65, 2-amino-1-(5,6-dichloro-3,4-dihydropyrrolo[3,4-b]indol-2(1H)-yl)ethan-1-one]
– | – | – | 500 to 1000 | 678 | 1000 to 5000 | COCCNCC(=O)N1CCc2[nH]c3c(Cl)c(Cl)ccc3c2C1 [Compound 69, 1-(6,7-dichloro-1,3,4,5-tetrahydro-2H-pyrido[4,3-b]indol-2-yl)-2-((2-methoxyethyl)amino)ethan-1-one]
42 (≈ 13.2 µg/mL) | – | – | – | – | – | C[C@H]1c2c([nH]c3c(Cl)c(Cl)ccc23)CCN1C(=O)CO [Compound 157, (S)-1-(6,7-dichloro-1-methyl-1,3,4,5-tetrahydro-2H-pyrido[4,3-b]indol-2-yl)-2-hydroxyethan-1-one]
